“Also recorded” adds a separate entry of the source.
What was measured:
[1] = system: HL-60 cells; test: Cell cycle profile and DNA fragmentation, DAPI flow cytometry; format: cell-based, human; conditions: 72 h
Procedure: (§1) Asynchronous cultures in the exponential growth phase of MDA-MB-231 and HL-60 cells in 24-well plates were treated with several doses of PND. After 72 h of incubation, cells were centrifuged and treated as in the previous section, fixed, permeabilized and stained with a DNA intercalating fluorophore, 4,6-Diamidino-2-phenylindole (DAPI); those three steps were accomplished by adding to the cells 200 μl of a single nuclear isolation medium (NIM)-DAPI solution (Beckman Coulter). The cell suspension was then incubated for an additional 3 min at room temperature in the dark. The controls included in the series of experiments were similar to those described for the above experiments. Approximately, 20,000 events/cells were collected per sample by using a flow cytometer equipped with a solid state 405 nm laser (Gallios; Beckman Coulter). The acquisition and distribution of cell subpopulations within each cell cycle facets were accomplished by utilizing Kaluza flow cytometry software (Beckman Coulter). Additionally, doublets were effectively eliminated by including a single cells gate in the acquisition cell cycle protocol.

[2] = system: MDA-MB-231 cells; test: as above; format: cell-based, human; conditions: 72 h
Procedure: as §1

[3] = system: malignancy that was metastatic or unresectable; test: Open-label dose-escalating study of oral PND in terminally-ill human cancer patients
Procedure: An open-label, dose-escalating study was conducted to assess the longevity and safety of oral pyronaridine tetraphosphate (PND) in five terminally-ill human patients with selected cancers. […] Exclusion criteria included active clinically significant infection, uncontrolled intercurrent illness, neutropenia, and pregnancy.
The PND was obtained from Mangalam Drugs and Organics, Ltd, and the powered PND was encapsulated in size “00” gelatin capsules for oral administration.
Patient were instructed to escalate his or her dose if there was no unacceptable toxicity. […] Study Arm 2 started with a daily dose of 200 mg for 2 weeks, then 400 mg for 2 weeks, then 600 mg onwards. Due to ethical concerns of treating terminally-ill patients, there was no placebo group.
The primary outcomes assessed was the difference between the patient's expected survival length estimated at the time of study entry (estimated at 2-4 weeks for each patient) and his or her actual survival length. The secondary outcomes were malignancy-associated symptom relief, anti-tumor activity, safety, and tolerability of PND.

[4] = system: Calf Thymus DNA; test: Circular dichroism spectroscopy; format: binding; conditions: PND/DNA molar ratios 0.03-0.3; 30 min and 20 h
Procedure: Circular dichroism (CD) spectra measurements were taken in a JASCO-1100 spectropolarimeter equipped with a Xenon lamp (JASCO, Easton, MD). CT DNA and buffers were purchased from Sigma Aldrich. A CT DNA stock solution was prepared in Tris/HCl buffer (5 mM Tris/HCl, 50 mM NaCl, pH=7.39) and its concentration (4.325 mM) was spectrophotometrically determined using molar extinction coefficient 6600 M−1 cm−1 at 260 nm. A 150 μM dilution in Tris/HCl buffer was prepared and used for the experiments. A 2.0 mM stock solution of PND was freshly prepared in MQ water prior to use. The appropriate volume of this solution was added to 3 ml working solutions of 150 μM CT DNA to achieve molar ratios of 0.03, 0.06, 0.2 and 0.3 PND/DNA. Samples were prepared in triplicate and incubated for 30 minutes and 20 hours. All CD spectra of DNA and DNA/PND were recorded at 25° C. over the range 205-380 nm and finally corrected with a blank and noise reduction. The final data is the average of three experiments and it is expressed in millidegrees (mdegs).

[5] = system: MDA-MB-231 LM2-LUC4 metastatic breast cancer cells; test: Metastatic breast cancer tumours in mice, daily gavage; format: in vivo
Procedure: Treatment began when tumors reached 150-300 mm^3 in size (i.e. Day 1).
In the PND-treated group (n=6), all 6 mice were given 160 mg/kg from Day 1 to Day 9. PND-treated mice numbers 2, 4, and 5 received 160 mg/kg for the entire study, while PND-treated mice numbers 1, 3, and 6 had the largest tumors in the group on Day 9, and had their doses increased on Day 10 to 240 mg/kg, and again on Day 13 to 320 mg/kg. The control mice (n=6) were given placebo throughout the study. The size of each tumor was measured daily. The protocol's endpoint was when a tumor reached 1500 mm^3 in size, triggering the euthanization of the mouse. For the analysis, the level of significance was set at P<0.05.

[6] = molecular target: T1, topoisomerase II (Homo sapiens, UniProt P11388); test: TopoGen Topoisomerase II Assay Kit (kDNA decatenation); format: biochemical; conditions: kDNA plus topoisomerase II; 5, 50, 500 μM PND
T1 construct: purchased TopoGen
T1 sequence (P11388 whole entry): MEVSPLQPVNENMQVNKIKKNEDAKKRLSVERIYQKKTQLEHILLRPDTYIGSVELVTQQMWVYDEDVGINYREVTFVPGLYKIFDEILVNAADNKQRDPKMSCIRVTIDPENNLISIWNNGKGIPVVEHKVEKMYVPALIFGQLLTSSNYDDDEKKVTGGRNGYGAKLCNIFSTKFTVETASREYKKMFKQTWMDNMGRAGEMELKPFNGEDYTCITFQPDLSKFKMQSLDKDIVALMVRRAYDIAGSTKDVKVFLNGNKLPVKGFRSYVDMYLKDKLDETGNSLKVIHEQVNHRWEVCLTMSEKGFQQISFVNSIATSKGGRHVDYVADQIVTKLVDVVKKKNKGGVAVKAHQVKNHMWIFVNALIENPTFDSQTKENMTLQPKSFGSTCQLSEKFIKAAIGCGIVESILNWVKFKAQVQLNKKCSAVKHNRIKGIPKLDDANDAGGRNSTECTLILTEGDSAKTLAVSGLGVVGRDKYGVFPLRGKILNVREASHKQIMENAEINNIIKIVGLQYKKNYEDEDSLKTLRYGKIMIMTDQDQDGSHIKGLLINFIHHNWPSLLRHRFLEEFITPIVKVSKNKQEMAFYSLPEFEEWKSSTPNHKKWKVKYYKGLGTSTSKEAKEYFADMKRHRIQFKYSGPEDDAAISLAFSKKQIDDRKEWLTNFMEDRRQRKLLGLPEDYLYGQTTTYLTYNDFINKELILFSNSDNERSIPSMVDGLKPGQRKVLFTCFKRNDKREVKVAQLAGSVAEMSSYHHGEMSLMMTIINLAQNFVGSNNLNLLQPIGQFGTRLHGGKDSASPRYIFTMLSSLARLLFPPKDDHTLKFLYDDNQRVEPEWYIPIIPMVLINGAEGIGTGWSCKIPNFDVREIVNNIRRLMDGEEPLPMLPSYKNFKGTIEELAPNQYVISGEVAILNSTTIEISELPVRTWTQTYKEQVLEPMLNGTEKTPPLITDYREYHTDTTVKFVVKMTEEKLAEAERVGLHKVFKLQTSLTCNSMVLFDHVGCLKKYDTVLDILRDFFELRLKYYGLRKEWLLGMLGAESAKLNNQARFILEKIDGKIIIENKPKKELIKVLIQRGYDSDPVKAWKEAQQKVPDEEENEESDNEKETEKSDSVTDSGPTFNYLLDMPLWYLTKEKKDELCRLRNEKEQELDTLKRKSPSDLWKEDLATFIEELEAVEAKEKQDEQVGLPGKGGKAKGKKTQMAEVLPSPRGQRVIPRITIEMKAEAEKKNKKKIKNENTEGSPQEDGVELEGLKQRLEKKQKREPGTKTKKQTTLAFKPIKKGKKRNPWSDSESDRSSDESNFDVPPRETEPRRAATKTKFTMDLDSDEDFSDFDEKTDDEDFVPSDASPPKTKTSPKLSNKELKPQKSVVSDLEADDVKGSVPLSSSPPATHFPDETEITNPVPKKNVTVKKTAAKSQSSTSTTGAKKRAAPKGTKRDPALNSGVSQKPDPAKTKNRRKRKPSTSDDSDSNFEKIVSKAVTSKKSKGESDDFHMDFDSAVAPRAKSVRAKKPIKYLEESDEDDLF
Description: FIG. 3. Transcriptome analyses of possible pathways activated by pyronaridine (PND) and target validation. […] Pearson correlation analysis of the transcriptional signature of PND compared to the signatures deposited in LINCS project. Compounds marked correlate with the effects of PND, wherein darker the fill, the better the correlation. […] Lane 1, catenated kinetoplast DNA (kDNA); Lane 2, decatenated kDNA; Lane 3, linear kDNA; Lane 4, kDNA plus topoisomerase II; Lane 5, kDNA plus topoisomerase plus 5 μM of PND; Lane 6, kDNA plus topoisomerase plus 50 μM of PND; Lane 7, kDNA plus topoisomerase plus 500 μM of PND; Lane 8, kDNA plus topoisomerase II plus 1 mM etoposoide (Topo II inhibitor); Lane 9, kDNA plus topoisomerase ii plus PBS; 10, kDNA plus topoisomerase II plus DMSO.
In order to explore the possible Mechanism of Action (MoA) of PND, the transcriptome results for each cell line obtained were compared with the gene-expression data from the LINCS project (http://www.lincsproject.org), that contains the gene-expression profiles from various human cells treated with FDA-approved and withdrawn compounds as well as different well-characterized chemical reagents. It was reasoned that the expression profile of each lead compound should also induce a cellular gene expression response consistent with a known MoA of drugs deposited in LINCS. […]

[7] = concentration-dependent, P<0.0005

COC1=CC=C2Nc3cc(Cl)ccc3C(N=C3C=C(CN4CCCC4)C(=O)C(CN4CCCC4)=C3)=C2N1 [PND, 4-[(7-chloro-2-methoxy-1,5-dihydrobenzo[b][1,5]naphthyridin-10-yl)imino]-2,6-bis(pyrrolidin-1-ylmethyl)cyclohexa-2,5-dien-1-one]
decrease of G0/G1 cell subpopulation [1]: not observed
DNA fragmentation (sub-G0/G1 subpopulation) [1, 7]: significant increase
S and G2/M subpopulations ([1]; vs PBS and untreated controls): decreased
G0/G1 cell subpopulation [2]: significant decrease
DNA fragmentation (sub-G0/G1 subpopulation) [2, 7]: significant increase
S and G2/M subpopulations ([2]; vs PBS and untreated controls): decreased
most recent CBC and CMP results ([3]; Case 1): within normal reference ranges
study-drug related adverse events ([3]; Case 1, hilar cholangiocarcinoma): no reports of any study-drug related adverse events
survival status ([3]; Case 1, June 2019, start 20 Dec. 2018, expected survival 2-4 weeks): still alive
study-drug related adverse events ([3]; Case 2, lung cancer stage IV): no reports of study-drug related adverse events
survival status ([3]; Case 2, start 22 Jan. 2019): passed away on 22 Feb. 2019
study-drug related adverse events ([3]; Case 3, ovarian cancer stage IV): no reports of study-drug related adverse events
survival status ([3]; Case 3, start 15 Jan. 2019): passed away on 29 Jan. 2019
survival status ([3]; Case 4, breast cancer stage IV, start 20 Jan. 2019): passed away on 15 Feb. 2019
most recent CBC and CMP results ([3]; Case 5): within normal reference ranges
study-drug related adverse events ([3]; Case 5, small cell lung cancer stage IV, cleared within a week): irritation on the skin during the first week of treatment
survival status ([3]; Case 5, June 2019, start 29 Jan. 2019): still alive
maximum tolerated dose ([3]; any patient, up to 500 or 600 mg daily): not reached
tolerability ([3]; five patients, 200-600 mg daily oral): well tolerated
change of CD spectra of CT DNA [4]: increase the intensity of both the negative and the positive bands
average tumor size ([5]; 160 mg/kg daily gavage, Day 1 to 9, control 750 mm^3, P 0.01): 430 mm^3
PND accumulation on dissection (stomach, intestines, liver) ([5]; 6 PND-treated mice dissected): no sign of PND accumulation
adverse events ([5]; 160-320 mg/kg daily gavage): no reports of negative adverse events except discomfort in walking after Day 15
length of survival versus placebo ([5]; 160-320 mg/kg daily gavage): significant difference in lengths of survival favoring the PND-treated group
weight, eating, grooming ([5]; 160-320 mg/kg daily gavage): no weight loss, no eating disorders, or grooming issues
tumor size versus placebo ([5]; Day 1 to 15, P 0.0001): tumors had grown larger in the placebo group than in the PND-treated group
pigmentation at about Day 20 ([5]; all 6 PND-treated mice): yellowing in the eyes, skin, ears, and paws
inhibition of topoisomerase II activity [6]: activity of PND as a Topoisomerase inhibitor was confirmed; also recorded: inhibition of the topoisomerase II activity in a dose-dependent manner

From patent US12201626B2, “Bifunctional compositions for the treatment of cancer” (ARMACEUTICA, INC., priority 2018, dated 2025)
